Experimental data as given in patent US20080255090A1, “Ceratamines A and B, and Analogues, Syntheses and Pharmaceutical Compositions Thereof” (THE UNIVERSITY OF BRITISH COLUMBIA, priority 2003, published 2008).
≈ marks a conversion by molar mass, not a printed value.

Tested on: mitotic arrest
Assay: cell-based ELICA assay that detects mitotic arrest (Roberge et al. 2000)
Conditions: cell-based ELICA assay of Roberge et al. (2000) Cancer Res. 60:5052
Description: As part of a program to discover new antimitotic natural products, extracts of marine invertebrates are screened in a cell-based assay that detects mitotic arrest (Roberge, M. et al. (2000) Cancer Res. 60:5052). […] The compounds described below, their salts, prodrugs and pharmaceutical compositions thereof are all contemplated within the scope of this invention.
Methods suitable for assaying antimitotic activity of compounds of this invention or compounds used as precursors, may be based on any of a variety of known methodologies including microscopic examination of cells to determine if they are arrested in mitosis. Particularly useful methods employ antibodies specific for mitotic cells, such as the method described in the international patent application published under WO 99/15157 or the assays described in WO 01/38339 and in Roberge et al. (2000) Cancer Res. 60:5052. Assays will typically employ cells which regularly divide in culture (e.g. cancer cells). […]
Immunological methods useful for determination of mitotic cells in an assay include any method for determining antibody-antigen binding, including: immunocytochemistry (e.g. immunofluorescence), flow cytometry, immunoblotting, and ELISA, including those described in Vincent, I. et al. [supra]. High throughput testing of samples may be readily achieved by use of the ELISA or the ELICA assays described in WO 01/38339. […]

Row | IC50 (read-out: IC50, antimitotic activity in the cell-based ELICA assay) [µg/mL] | IC50, antimitotic activity in the cell-based ELICA assay [µg/mL] | Molecule
1 | 10 (≈ 21.4 µM) |  | CNc1nc2ccn(C)c(=O)c(Cc3cc(Br)c(OC)c(Br)c3)c-2n1 [Heterocycle 1, ceratamine A]
2 |  | 10 | ceratamine B [Heterocycle 2]
